For one test, the target named is C3 convertase (CVF:Bb) (Homo sapiens, UniProt P00751). The test can be described thus: C3 Convertase Assay (biochemical assay, compound contacted with CVF:Bb, then C3 substrate added). The source says: Various technologies are available for assessing provided compounds, compositions and methods. In some embodiments, a useful assay is an assay described below. […] In some embodiments, a purified, isolated or enriched C3 convertase is utilized. […] In some embodiments, a compound was first contacted with CVF:Bb, followed by addition of C3 substrates. As those skilled in the art will appreciate, products C3a and/or C3b could be detected through a number of technologies (e.g., antibodies specific for a product) and reduction of levels of one or both of them could be utilized to assess inhibition.
Chain of C3 convertase (CVF:Bb) (P00751 260-764 limits assumed): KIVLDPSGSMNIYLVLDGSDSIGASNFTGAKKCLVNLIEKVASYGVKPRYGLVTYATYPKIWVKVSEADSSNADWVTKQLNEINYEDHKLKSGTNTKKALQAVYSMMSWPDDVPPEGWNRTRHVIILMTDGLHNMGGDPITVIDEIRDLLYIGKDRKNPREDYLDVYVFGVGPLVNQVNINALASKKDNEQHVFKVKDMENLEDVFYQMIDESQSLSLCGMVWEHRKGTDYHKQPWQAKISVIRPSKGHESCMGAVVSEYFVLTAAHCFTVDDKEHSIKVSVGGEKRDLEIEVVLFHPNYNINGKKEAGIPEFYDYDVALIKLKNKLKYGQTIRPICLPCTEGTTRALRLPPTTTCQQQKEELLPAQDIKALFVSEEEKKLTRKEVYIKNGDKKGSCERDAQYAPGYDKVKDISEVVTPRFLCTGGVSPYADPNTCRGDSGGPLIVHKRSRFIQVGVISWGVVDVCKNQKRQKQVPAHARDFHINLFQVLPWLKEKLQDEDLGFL

Test [1] concerns complement alternative pathway. Nature of the test: Wieslab AP assay (Complement Alternative Pathway ELISA, human serum as source of complement). The format is biochemical. The following applies: read-out: B: Wieslab AP IC50 (nM) (alternative pathway). An excerpt: Among other things, the present disclosure provides compounds and compositions that can modulate complement activation. In some embodiments, provided technologies inhibit complement activation. In some embodiments, provided technologies inhibit C3 convertase. Various technologies are available for assessing provided compounds, compositions and methods. In some embodiments, a useful assay is an assay described below. In some embodiments, IC50 of a provided compound measured in an assay is about or no more than about 1000, 900, 800, 700, 600, 500, 400, 300, 200, 100, 90, 80, 70, 60, 50, 40, 30, 20, or 10 nM. In some embodiments, a useful assay is a biochemical assay assessing inhibition of C3 convertase activity by a provided compound. In some embodiments, a purified, isolated or enriched C3 convertase is utilized. In some embodiments, CVF:Bb (e.g., assembled from three components Cobra Venom Factor (CVF), Complement Factor B (FB) and Complement Factor D (FD)) was utilized (certain results are presented as “A” in the Table below). In some embodiments, a compound was first contacted with CVF:Bb, followed by addition of C3 substrates. As those skilled in the art will appreciate, products C3a and/or C3b could be detected through a number of technologies (e.g., antibodies specific for a product) and reduction of levels of one or both of them could be utilized to assess inhibition. In some embodiments, a useful assay is Wieslab© assay (certain results are presented as “B” in the Table below).
In some embodiments, classical and alternative pathway activity are assessed using Wieslab© technologies. In some embodiments, Wieslab© assay were performed with a commercially available kit, using a protocol adapted for measurement of complement inhibitory activity of compounds. In some embodiments, human serum was utilized as a positive control. In some embodiments, human serum serves as a source of complement proteins, and inhibition of complement activity of a serum by various compounds were assessed. In some embodiments, a kit is COMPL AP330, Complement Alternative Pathway ELISA, Eagle Biosciences. In some embodiments, a kit is COMPL CP310, Complement Classical Pathway ELISA, Eagle Biosciences. In some embodiments, kits are available from VWR (102994-104, Complement Alternative pathway ELISA, Eagle Biosciences, Inc.; 102994-106, Complement Classical pathway ELISA, Eagle Biosciences, Inc.).
In some embodiments, a useful procedure described below is utilized. • 1. Make fresh test compound stock at 1 mM. • 2. Test compound serial dilution: dilute the stock to working stock concentrations. Add DMSO to dilution buffer using same dilution factor for the working stock so the composition of all the serial diluted stock is the same. In some embodiments, stock was serial diluted from the working stock 1:4 (for classical pathway) or 1:2 (for alternative pathway) using new diluted dilution buffers. • 3. Dilute positive controls using the dilution buffer provided with the assay kit to 2× of the final conc., for classical pathway, 50.5×. Positive control is human serum, which contains complement proteins. • 4. Add 125 μL of test compound solution and 125 μL of diluted positive control to a 96 well polypropylene plate, mix gently and cover the plate and incubate at 4° C. for 30 min. • 5. Add 100 μL/well to the assay plate and incubate at 37° C. for 1 h. Typically, controls in the assay plate, for example, buffer alone for negative control, positive control alone to verify the complement activity of the reagent. • 6. Wash plate and add 100 μL/well conjugate, incubate at room temperature for 30 min. • 7. Wash plate and add 100 μL/well substrate, then incubate at room temperature for approximately 30 minutes. Periodically monitor the absorbance at 405 nm (OD405) in the positive control alone well. • 8. Once the OD405 is >1, read the whole plate immediately. Or stop the reaction by adding 100 μL of 5 mM EDTA to each well and read within 60 minutes.

The subject of another test is complement activation. The following applies: relative to compstatin amidated at the C-terminus; published data; cited from earlier work.

The term IC50 denotes the concentration at which inhibition is half-maximal. For the compound `COc1cc(C)c2[nH]ccc2c1CN1CCN(C)CC1c1ccc(C(=O)O)cc1` (stereo not drawn), the IC50 at C3 convertase (CVF:Bb) was 0.163 µM; in test [1], 1570 nM.
With `COc1cc(C)c2[nH]ccc2c1CN1CCN(CCCF)CC1c1ccc(C(=O)O)cc1` (stereo not drawn), the IC50 against C3 convertase (CVF:Bb) was found to be 0.119 µM; in test [1], 153 nM.
Consider `CCN1CCN(Cc2c(OC)cc(C)c3[nH]ccc23)C(c2ccc(C(=O)O)cc2)C1` (stereo not drawn), for which the 50% inhibitory concentration (IC50) at C3 convertase (CVF:Bb) was 0.219 µM; in test [1] it was 205 nM.
For `COc1cc(C)c2[nH]ccc2c1CN1CCN(C2CC2)CC1c1ccc(C(=O)O)cc1` (stereo not drawn), the results for the 50% inhibitory concentration (IC50) (against C3 convertase (CVF:Bb); in test [1]) were 0.141 µM and 29 nM, respectively.
As for `C=CCN1CCN(Cc2c(OC)cc(C)c3[nH]ccc23)C(c2ccc(C(=O)O)cc2)C1` (stereo not drawn), the IC50 was found to be 0.25 µM against C3 convertase (CVF:Bb) and 1490 nM in test [1].
As to `COc1cc(C)c2[nH]ccc2c1CN1CCN(CCF)CC1c1ccc(C(=O)O)cc1` (stereo not drawn), the concentration for half-maximal inhibition (IC50) against C3 convertase (CVF:Bb) amounted to 0.065 µM; in test [1], 107 nM.
For the compound `COc1cc(C)c2[nH]ccc2c1CN1CCN(CC(F)F)CC1c1ccc(C(=O)O)cc1` (stereo not drawn), the IC50 at C3 convertase (CVF:Bb) turned out to be 0.076 µM; in test [1], 36 nM.
In the case of `COc1cc(C)c2[nH]ccc2c1CN1CCN(CCC(F)(F)F)C[C@H]1c1ccc(C(=O)O)nc1`, the values for the 50% inhibitory concentration (IC50) (at C3 convertase (CVF:Bb); in test [1]) were 0.096 µM and 34 nM, respectively.
On to `COc1cc(C)c2[nH]ccc2c1CN1CCN(CCC(F)(F)F)C[C@@H]1c1ccc(C(=O)O)nc1`, for which the IC50 is 6.44 µM at C3 convertase (CVF:Bb) and above 10000 nM in test [1].
For `COc1cc(C)c2[nH]ccc2c1CN1CCN(Cc2ncc[nH]2)C[C@H]1c1ccc(C(=O)O)cc1`, the values for the IC50 (against C3 convertase (CVF:Bb); in test [1]) were above 10 µM and 8860 nM, respectively.
Consider `COc1cc(C)c2[nH]ccc2c1CN1CCN(Cc2ncc[nH]2)C[C@@H]1c1ccc(C(=O)O)cc1`, for which the half-inhibitory concentration (IC50) in test [1] was above 10000 nM.
Consider `COc1cc(C)c2[nH]ccc2c1CN1CCN(C(C)CC(F)(F)F)C[C@H]1c1ccc(C(=O)O)cc1` (stereo partly drawn), for which the IC50 in test [1] came to 110 nM.
Turning to `COc1cc(C)c2[nH]ccc2c1CN1CCN(CCC(F)(F)F)C[C@H]1c1ccc(C(=O)NS(C)(=O)=O)cc1`, the IC50 on C3 convertase (CVF:Bb) was 0.056 µM; in test [1], 65 nM.
As to `COc1cc(C)c2[nH]ccc2c1CN1CCN(CC(F)(F)F)C[C@H]1c1ccc(C(=O)NS(C)(=O)=O)cc1`, the figures for the IC50 (against C3 convertase (CVF:Bb); in test [1]) were 0.212 µM and 382 nM, respectively.
With `COc1cc(C)c2[nH]ccc2c1CN1CCN(CC(C)(F)F)C[C@H]1c1ccc(C(=O)O)cc1`, the figures for the 50% inhibitory concentration (IC50) (against C3 convertase (CVF:Bb); in test [1]) were 0.272 µM and 211 nM, respectively.
Turning to `COc1cc(C)c2[nH]ccc2c1CN1CCN(CCC(F)F)C[C@H]1c1ccc(C(=O)O)cc1`, the concentration for half-maximal inhibition (IC50) on C3 convertase (CVF:Bb) is 0.027 µM; in test [1], 27 nM.
The matching figures for `COc1cc(C)c2[nH]ccc2c1CN1CC(=O)N(C)C[C@H]1c1ccc(C(=O)O)cc1`: 6.4 µM and 1000 nM.
`COc1cc(C)c2[nH]ccc2c1CN1CCN(C)C(=O)[C@H]1c1ccc(C(=O)O)cc1`: the results for the IC50 (against C3 convertase (CVF:Bb); in test [1]) were 0.36 µM and 1000 nM, respectively.
As to `COc1cc(C)c2[nH]ccc2c1CN1CCN(C(C)C(F)F)C[C@H]1c1ccc(C(=O)O)cc1` (stereo partly drawn), the IC50 on C3 convertase (CVF:Bb) was 0.228 µM; in test [1], 230 nM.
On to `COc1cc(C)c2[nH]ccc2c1CN1CCN(CCO)C[C@H]1c1ccc(C(=O)O)cc1`, for which the IC50 against C3 convertase (CVF:Bb) worked out at 0.35 µM; in test [1], 128 nM.
With `[2H]C([2H])([2H])N1CCN(Cc2c(OC)cc(C)c3[nH]ccc23)[C@H](c2ccc(C(=O)O)cc2)C1`, the IC50 against C3 convertase (CVF:Bb) was 0.065 µM; in test [1], 9 nM.
For `COc1cc(C)c2[nH]ccc2c1CN1CCN(CCC(F)(F)F)C[C@H]1c1ccc(C(=O)O)cc1` the same measures were 0.029 µM and 13 nM.
As for `COc1cc(C)c2[nH]ccc2c1CN1CCN(CC(F)F)C[C@H]1c1ccc(C(=O)NS(C)(=O)=O)cc1`, the IC50 on C3 convertase (CVF:Bb) is 0.243 µM; in test [1] it was 8 nM.
For the compound `COc1cc(C)c2[nH]ccc2c1CN1CCN(CC(F)(F)F)C[C@H]1c1ccc(C(=O)O)cc1`, the half-inhibitory concentration (IC50) against C3 convertase (CVF:Bb) was found to be 0.176 µM; in test [1], 174 nM.
In the case of `COc1cc(C)c2[nH]ccc2c1CN1CCN(C)C[C@H]1c1ccc(C(=O)O)cc1` (single isomer, unassigned), the half-inhibitory concentration (IC50) was determined as 0.045 µM against C3 convertase (CVF:Bb) and 64 nM in test [1].
Take `Cc1cc(C2CC2)c(CN2CCN(CC(F)F)C[C@H]2c2ccc(C(=O)O)cc2)c2cc[nH]c12` [drawing 450]: the IC50 in test [1] amounted to 396 nM.
Take “Ac-ICV(1-Nal)QDWGAHRCT-COOH [Ac V4(1-Nal)/H9A-OH]”: in the test on complement activation, the Activity over compstatin is reported as 30xmore.
Turning to “Ac-ICV(2-Igl)QDWGAHRCT-CONH2 [Ac-V42Igl/H9A]”, the Activity over compstatin in the test with complement activation is listed as 39xmore.
Turning to “Ac-ICV(2-Igl)QDWGAHRCT-COOH [Ac-V42Igl/H9A-OH]”, the Activity over compstatin in the test on complement activation is reported as 37xmore.
As to “Ac-ICV(2-Nal)QDWGAHRCT-CONH2 [Ac-V4(2-Nal)/H9A]”, in the test with complement activation, the Activity over compstatin is 99xmore.
Regarding “Ac-ICV(2-Nal)QDWGAHRCT-COOH [Ac V4(2-Nal)/H9A-OH]”, in the test with complement activation, the Activity over compstatin is reported as 38xmore.
For “Ac-ICV(Bpa)QDWGAHRCT-CONH2 [Ac-V4(Bpa)/H9A]”, the Activity over compstatin in the test on complement activation is given as 86xmore.
As for “Ac-ICV(Bpa)QDWGAHRCT-COOH [Ac-V4(Bpa)/H9A-OH]”, the Activity over compstatin in the test on complement activation is listed as 49xmore.
On to “Ac-ICVDhtQDWGAHRCT-COOH [Ac-V4Dht/H9A-OH]”, for which, in the test on complement activation, the Activity over compstatin is reported as 5xmore.
Consider “Ac-ICVWQD(5fW)GAHRCT-CONH2 [Ac-V4W/W7(5fW)/H9A]”, for which the Activity over compstatin in the test with complement activation is recorded as 121xmore.
Turning to “Ac-ICVWQDWGAHRCT-CONH2 (Ac-ICVWQDWGAHRCT-NH2; cysteine pairing not given here) [Ac-V4W/H9A, "compstatin analogs useful in the present disclosure"]”, in the test with complement activation, the Activity over compstatin was 45xmore.
As to “Ac-ICVWQDWGAHRCdT-COOH [Ac-V4W/H9A/T13dT-OH]”, the Activity over compstatin in the test with complement activation is 55xmore.
Ac-ICVYQDWGAHRCT-CONH2 [Ac-V4Y/H9A]: the Activity over compstatin with complement activation was 14xmore.
Take “Ac-ICWVQDWGHHRCT-CONH2 (Ac-ICWVQDWGHHRCT-NH2; not fully specified (bridges); printed as Ac-ICWVQDWGHHRCT-CONH2; cysteine pairing not given here) [Ac-compstatin, "compstatin analogs useful in the present disclosure"]”: in the test with complement activation, the Activity over compstatin was 3xmore.
In the case of “H-GICV(6fW)QD(6fW)GAHRCTN-COOH [+G/V4(6fW)/W7(6fW)H9A + N-OH]”, the Activity over compstatin in the test on complement activation is listed as 126xmore.

These data come from patent publication US20240360103A1, “COMPLEMENT INHIBITION” (Apellis Pharmaceuticals, Inc., priority 2021, published 2024).
